US4221803A, “Substituted dibenzyl ethers and pharmaceutical compositions containing said ethers for the treatment of infections” (Recordati, S.A., priority 1979, dated 1980)
Values after ≈ are worked out from the molar mass of the structure shown. Like-named read-outs stand apart in the source and are kept apart here.

Tests used:
C.Albicans R = assay: Antimycotic activity, two-fold serial broth dilution; format: cell-based; settings: Candida albicans, Sabouraud liquid pH 5.7, 37° C., 48 hours
Procedure: (§1) In Table II are reported the minimal inhibent concentrations (MIC) of the compounds I and of both the comparison substances. For MIC, the minimal concentration is intended, i.e., one which is able to inhibit the growth of several fungi and yeasts. The MIC values have been determined according to the usual two-fold serial broth dilution technique.
(§2) Medium: Sabouraud liquid pH 5.7 (5 ml per tube)
(§3) Inoculum: Yeasts were grown in Sabouraud liquid for 24 hours (Cryptococcus neoformans for 2 days). Cells were collected by centrifugation at 6500 rpm and again suspended in physiological solution so as to have a suspension giving on a Coleman Jr II spectrophotometer, at a wavelength of 650 nm, a 50% transparence (T). 0.1 ml of this suspension constituted the inoculum for 5 ml.
(§4) Temperature and incubation time: 37° C. for 48 hours.

C.Albicans Grunenthal = assay: as above; format: cell-based; settings: Candida albicans, Sabouraud liquid pH 5.7, 37° C., 48 hours
Procedure: as §1, §2, §3, §4

C.Albicans 1041 = assay: as above; format: cell-based; settings: Candida albicans, Sabouraud liquid pH 5.7, 37° C., 48 hours
Procedure: as §1, §2, §3, §4

C.Albicans 1040 = assay: as above; format: cell-based; settings: Candida albicans, Sabouraud liquid pH 5.7, 37° C., 48 hours
Procedure: as §1, §2, §3, §4

C.Neoformans = assay: as above; format: cell-based; settings: Cryptococcus neoformans
Procedure: as §1, §2, §3, §4

[1] = Acute toxicity per os in the mouse; settings: in vivo, po
Text: In Table I are reported the acute toxicity values (LD50) of the compounds I and of both the comparison substances. Toxicity, given in mg/Kg, has been evaluated per os in the mouse by conventional methods.

M.Canis 28 = assay: Antimycotic activity, two-fold serial broth dilution; format: cell-based; settings: Microsporum canis, 168 h, Sabouraud liquid pH 5.7, 25° C., 7 days
Procedure: as §1, §2
(§5) For Aspergillus niger, after filtration, a 1/10 dilution in physiological solution was prepared. 0.1 ml of this dilution constituted the inoculum for 5 ml.
(§6) Temperature and incubation time: 25° C. for 7 days.

E.Floccosum = assay: as above; format: cell-based; settings: Epidermophyton floccosum, 168 h, Sabouraud liquid pH 5.7, 25° C., 7 days
Procedure: as §1, §2, §5, §6

T.Verrucosum = assay: as above; format: cell-based; settings: Trichophyton verrucosum, 168 h
Procedure: as §1, §2, §5, §6

T.Rubrum 2121 = assay: as above; format: cell-based
Procedure: as §1, §2, §5, §6

P.Chrysogenum = assay: as above; format: cell-based; settings: Penicillium chrysogenum, 168 h, Sabouraud liquid pH 5.7, 25° C., 7 days
Procedure: as §1, §2, §5, §6

T.Mentagroph. 2538 = assay: as above; format: cell-based; settings: 168 h, Sabouraud liquid pH 5.7, 25° C., 7 days
Procedure: as §1, §2, §5, §6

T.Mentagroph. 10148 = assay: as above; format: cell-based; settings: 168 h
Procedure: as §1, §2, §5, §6

T.Mentagroph. 5865 = assay: as above; format: cell-based; settings: 168 h, Sabouraud liquid pH 5.7, 25° C., 7 days
Procedure: as §1, §2, §5, §6

A.Niger = assay: as above; format: cell-based; settings: Aspergillus niger, 168 h, Sabouraud liquid pH 5.7, 25° C., 7 days, inoculum 1/10 dilution
Procedure: as §1, §2, §5, §6

Str.hemolyt 203 = assay: Antibacterial activity, two-fold serial broth dilution; format: cell-based
Procedure: (§7) The MIC values of the products under examination and of both comparison substances, referred to a certain number of gram positive bacteria and determined according to the conventional two-fold serial broth dilution technique, are reported in Table III.
(§8) Medium: Tryptic soy broth pH 7.3 (5 ml per tube)
(§9) Inoculum: The day before the test, the microorganisms to be tested were transplanted in their respective media. After 18 hours incubation at 37° C., 0.1 ml of a 1:100 diluted suspension of each strain in broth, were inoculated in 5 ml of medium containing the products under examination at a serial concentration of from 0.009 to 160 mcg/ml.
(§10) Temperature and incubation time: 37° C. for 18 hours.

Cl. novyi = assay: as above; format: cell-based; settings: Clostridium novyi, Tryptic soy broth pH 7.3, 37° C., 18 hours
Procedure: as §7, §8, §9, §10

S.aureus SG 511 = assay: as above; format: cell-based; settings: Staphylococcus aureus
Procedure: as §7, §8, §9, §10

B.subtilis = assay: as above; format: cell-based; settings: Bacillus subtilis
Procedure: as §7, §8, §9, §10

S.aureus 10B = assay: as above; format: cell-based; settings: Staphylococcus aureus
Procedure: as §7, §8, §9, §10

Str.hemolyt 821 = assay: as above; format: cell-based; settings: Tryptic soy broth pH 7.3, 37° C., 18 hours
Procedure: as §7, §8, §9, §10

[2] = 48 h, pH 5.7, read-out: Antimycotic activity (MIC)
[3] = pH 5.7, read-out: Antimycotic activity (MIC)
[4] = Trichophyton rubrum, 2121, 168 h, pH 5.7, read-out: Antimycotic activity (MIC)
[5] = Str.hemolyt 203, Tryptic soy broth pH 7.3, 37° C., 18 hours, read-out: Antibacterial activity (MIC)
[6] = SG511, 18 h, pH 7.3, read-out: Antibacterial activity (MIC)
[7] = 18 h, pH 7.3, read-out: Antibacterial activity (MIC)
[8] = 10B, 18 h, pH 7.3, read-out: Antibacterial activity (MIC)
[9] = T.Verrucosum, Sabouraud liquid pH 5.7, 25° C., 7 days, read-out: Antimycotic activity (MIC)
[10] = C.Neoformans, Sabouraud liquid pH 5.7, 37° C., 48 hours, read-out: Antimycotic activity (MIC)
[11] = Trichophyton rubrum, 168 h, T.Rubrum 2121, Sabouraud liquid pH 5.7, 25° C., 7 days, read-out: Antimycotic activity (MIC)
[12] = T.Mentagroph. 10148, Sabouraud liquid pH 5.7, 25° C., 7 days, read-out: Antimycotic activity (MIC)
[13] = SG511, S.aureus SG 511, Tryptic soy broth pH 7.3, 37° C., 18 hours, read-out: Antibacterial activity (MIC)
[14] = B.subtilis, Tryptic soy broth pH 7.3, 37° C., 18 hours, read-out: Antibacterial activity (MIC)
[15] = S.aureus 10B, Tryptic soy broth pH 7.3, 37° C., 18 hours, read-out: Antibacterial activity (MIC)

Row | Structure (SMILES) | MIC (C.Albicans R) [µg/mL] | MIC (C.Albicans Grunenthal) [µg/mL] | MIC (C.Albicans 1041) [µg/mL] | MIC (C.Albicans 1040) [µg/mL] | MIC (C.Neoformans; [2]) [µg/mL] | LD50 [1] [mg/kg] | MIC (M.Canis 28) [µg/mL] | MIC (E.Floccosum) [µg/mL] | MIC (T.Rubrum 2121; [4]) [µg/mL] | MIC (P.Chrysogenum) [µg/mL] | MIC (T.Mentagroph. 2538) [µg/mL] | MIC (T.Mentagroph. 10148; [3]) [µg/mL] | MIC (T.Mentagroph. 5865) [µg/mL] | MIC (A.Niger) [µg/mL] | MIC (Str.hemolyt 203; [5]) [µg/mL] | MIC (Cl. novyi) [µg/mL] | MIC (S.aureus SG 511; [6]) [µg/mL] | MIC (B.subtilis; [7]) [µg/mL] | MIC (Str.hemolyt 821) [µg/mL] | MIC (T.Verrucosum; [9]) [µg/mL] | further results
1 | Clc1ccccc1C(c1ccccc1)(c1ccccc1)n1ccnc1 [Clotrimazole, [(imidazol-1-yl)-2-(o-chlorophenyl)-2,2-diphenylmethane]] | 10 (≈ 29 µM) | 10 (≈ 29 µM) | 40 (≈ 116 µM) | 40 (≈ 116 µM) | 0.625 (≈ 1.81 µM) | 880 | 2.5 (≈ 7.25 µM) | 5 (≈ 14.5 µM) | 1.25 (≈ 3.62 µM) | 40 (≈ 116 µM) | 0.078 (≈ 0.226 µM) | 1.25 (≈ 3.62 µM) | 0.62 (≈ 1.8 µM) | 10 (≈ 29 µM) | 5 (≈ 14.5 µM) | > 160 | 0.312 (≈ 0.905 µM) | 2.5 (≈ 7.25 µM) | 2.5 (≈ 7.25 µM) |  | MIC (T.Verrucosum; [3]): 1.25 µg/mL (≈ 3.62 µM); MIC (S.aureus 10B; [8]): 1.25 µg/mL (≈ 3.62 µM)
2 | Clc1ccc(COC(Cn2ccnc2)c2ccc(Cl)cc2Cl)c(Cl)c1 (stereo not drawn) [Miconazole, 2,2',4,4'-tetrachloro-α-(N-imidazolyl-methyl)-dibenzyl ether] | 5 (≈ 12 µM) | 5 (≈ 12 µM) | 20 (≈ 48.1 µM) | 20 (≈ 48.1 µM) | 0.078 (≈ 0.187 µM) | 870 | 5 (≈ 12 µM) | 5 (≈ 12 µM) | 0.312 (≈ 0.75 µM) | 20 (≈ 48.1 µM) | 0.078 (≈ 0.187 µM) | 0.625 (≈ 1.5 µM) | 0.31 (≈ 0.745 µM) | 40 (≈ 96.1 µM) |  | < 1.25 | 0.312 (≈ 0.75 µM) | 0.625 (≈ 1.5 µM) | 1.25 (≈ 3 µM) | 2.5 (≈ 6.01 µM) | MIC (Str.hemolyt 203; [7]): 0.625 µg/mL (≈ 1.5 µM); MIC (S.aureus 10B; [8]): 0.312 µg/mL (≈ 0.75 µM)
3 | Clc1ccc(C(Cn2ccnc2)OCc2ccc(Sc3ccccc3)cc2)c(Cl)c1 (stereo not drawn) [R=C6 H5 S, 2,4-Dichloro-4'-phenylthio-α-(N-imidazolyl-methyl)-dibenzyl ether] | 40 (≈ 87.8 µM) | 40 (≈ 87.8 µM) | 80 (≈ 176 µM) | 80 (≈ 176 µM) |  | 3000 | 2.5 (≈ 5.49 µM) | 5 (≈ 11 µM) |  | 5 (≈ 11 µM) | 0.156 (≈ 0.343 µM) |  | 1.25 (≈ 2.74 µM) | 10 (≈ 22 µM) | 0.078 (≈ 0.171 µM) | 5 (≈ 11 µM) |  |  | 0.156 (≈ 0.343 µM) | 1.25 (≈ 2.74 µM) | MIC (C.Neoformans; [10]): 0.156 µg/mL (≈ 0.343 µM); MIC (T.Rubrum 2121; [11]): 0.625 µg/mL (≈ 1.37 µM); MIC (T.Mentagroph. 10148; [12]): 0.625 µg/mL (≈ 1.37 µM); MIC (S.aureus SG 511; [13]): 0.039 µg/mL (≈ 0.0856 µM); MIC (B.subtilis; [14]): 0.078 µg/mL (≈ 0.171 µM); MIC (S.aureus 10B; [15]): 0.018 µg/mL (≈ 0.0395 µM)
4 | Clc1ccc(C(Cn2ccnc2)OCc2ccc(-c3ccccc3)cc2)c(Cl)c1 (stereo not drawn) [R=C6 H5, 2,4-Dichloro-4'-phenyl-α-(N-imidazolyl-methyl)-dibenzyl ether] | 5 (≈ 11.8 µM) | 5 (≈ 11.8 µM) | 20 (≈ 47.2 µM) | 10 (≈ 23.6 µM) |  | 2400 | 20 (≈ 47.2 µM) | 10 (≈ 23.6 µM) |  | 20 (≈ 47.2 µM) | 0.156 (≈ 0.368 µM) |  | 1.25 (≈ 2.95 µM) | 20 (≈ 47.2 µM) | 0.312 (≈ 0.737 µM) | < 1.25 |  |  | 0.156 (≈ 0.368 µM) | 10 (≈ 23.6 µM) | MIC (C.Neoformans; [10]): 0.312 µg/mL (≈ 0.737 µM); MIC (T.Rubrum 2121; [11]): 0.625 µg/mL (≈ 1.48 µM); MIC (T.Mentagroph. 10148; [12]): 0.625 µg/mL (≈ 1.48 µM); MIC (S.aureus SG 511; [13]): 0.039 µg/mL (≈ 0.0921 µM); MIC (B.subtilis; [14]): 0.156 µg/mL (≈ 0.368 µM); MIC (S.aureus 10B; [15]): 0.039 µg/mL (≈ 0.0921 µM)
